Source: patent US9149536B2, “Conjugated antimicrobial agents” (priority 2009, dated 2015)
≈ marks a conversion by molar mass, not a printed value. Like-named read-outs stand apart in the source and are kept apart here.

Experiments:
E. coli AG100A = assay: MIC, double-microdilution, E. coli AG100A; type: cell-based, Escherichia coli; settings: for MIC E. coli AG100A: Table 4, kanamycin resistant, APH(3′)-I
E. coli AG100B = assay: MIC, double-microdilution, E. coli AG100B; type: cell-based, Escherichia coli; settings: for MIC E. coli AG100B: Table 4; for MIC: Escherichia coli, AG100B
Description: AG100B and AG100A are two kanamycin resistant Escherichia coli strains expressing APH(3′)-I aminoglycoside resistance enzyme.

MRSA ATCC 43300 = assay: microbe, parasite or virus in culture; type: cell-based, S. aureus; settings: Table 4
E. coli ATCC 25922 = assay: MIC, double-microdilution, E. coli ATCC 25922; type: cell-based, Escherichia coli; settings: for MIC: Escherichia coli, ATCC25922
B. subtilis ATCC 6633 [1] = assay: MIC, double-microdilution, B. subtilis ATCC 6633; type: cell-based; settings: for MIC: Bacillus subtilis, ATCC6633
E. coli BL21/pETSACG1 = assay: microbe, parasite or virus in culture; type: cell-based; settings: for MIC ratio BL21/pETSACG1 to BL21: MIC resistant strain divided by MIC background strain; for MIC BL21/pETSACG1: expressed enzyme APH(3′)-IIIa
Protocol: (§1) For this purpose, exemplary conjugates, according to some embodiments of the present invention, were tested against five isogenic E. coli strains. E. coli (pSF815) and E. coli (pET9d) are laboratory resistant strains derived by transformation of E. coli XL1 blue (background strain) with the pSF815 and pET9d plasmids, respectively. […] The last two isogenic strains used were E. coli BL21 (background strain) and E. coli (pETSACG1). […] These three enzymes are among the most prevalent modes of resistance found in aminoglycosides resistance strains.
(§2) The MIC ratios were calculated by dividing the MIC value against resistant strain to that against the respective background strain.

E. coli BL21 = assay: microbe, parasite or virus in culture; type: cell-based; settings: background strain
Protocol: as §1, §2

E. coli XL1 blue/pET9d = assay: microbe, parasite or virus in culture; type: cell-based; settings: for MIC ratio XL1 blue/pET9d to XL1 blue: MIC resistant strain divided by MIC background strain; for MIC XL1 blue/pET9d: expressed enzyme APH(3′)-Ia
Protocol: as §1, §2

E. coli XL1 blue = assay: microbe, parasite or virus in culture; type: cell-based; settings: background strain
Protocol: as §1, §2

E. coli XL1 blue/pSF815 = assay: microbe, parasite or virus in culture; type: cell-based; settings: for MIC ratio XL1 blue/pSF815 to XL1 blue: MIC resistant strain divided by MIC background strain; for MIC XL1 blue/pSF815: expressed enzyme AAC(6′)-APH(2″)
Protocol: as §1, §2

E. coli R477-100 = assay: MIC, double-microdilution, E. coli R477-100; type: cell-based, Escherichia coli; settings: for MIC E. coli R477-100: Table 4; for MIC: Escherichia coli
B. subtilis ATCC 6633 [2] = assay: microbe, parasite or virus in culture; type: cell-based; settings: Bacillus subtilis, ATCC6633, read-out: MIC 15th passage, B.subtilis ATCC 6633
Protocol: (§3) In parallel, MIC evolution during these subcultures was compared concomitantly with each new generation, using bacteria harvested from control wells (wells cultured without antimicrobial agent from the previous generation). The relative MIC was calculated for each experiment from the ratio of MIC obtained for a given subculture to that obtained for first-time exposure.

E. coli ATCC 35218 = assay: microbe, parasite or virus in culture; type: cell-based; settings: Escherichia coli, ATCC35218, read-out: MIC 15th passage, E.coli ATCC 35218
Protocol: as §3

[3] = test system: bacterial protein synthesis; assay: In vitro coupled transcription/translation assay, E. coli S30 extract; type: biochemical; settings: luciferase readout
Protocol: Protein translation inhibition by the different compounds was quantified in a coupled transcription/translation assay by using E. coli S30 extracts for circular DNA with the pBEST/uc plasmid (Promega), according to the manufacturer's protocol.
Translation reactions (25 μl) that contained variable concentrations of the tested compound were incubated at 37° C. for 60 minutes, cooled on ice for 5 minutes, and diluted with a dilution reagent (tris-phosphate buffer (25 mM, pH 7.8), DTT (2 mM), 1,2-diaminocyclohexanetetraacetate (2 mM), glycerol (10%), Triton X-100 (1%) and BSA (1 mg/ml)) into 96-well plates. The luminescence was measured immediately after the addition of the Luciferase Assay Reagent (50 μl; Promega), and the light emission was recorded with a Victor3™ Plate Reader (Perkin-Elmer). The concentration of half-maximal inhibition (IC50) was obtained from fitting concentration-response curves to the data of at least two independent experiments by using Grafit 5 software (Leatherbarrow, R. J. Erithacus Software Ltd: Horley, U.K., 2001).
(§4) Relaxation assays were conducted with E. coli TopoIV.

E. coli DNA gyrase = E. coli DNA gyrase (Escherichia coli, UniProt P0AES4+P0AES6); settings: for IC50 fold superior than that of Cipro in DNA gyrase assay: general statements name DNA gyrase and TopoIV together; for IC50: read-out: DNA gyrase IC50, supercoiling assay, relaxed pBR322
E. coli DNA gyrase, sequence (P0AES4 whole entry, one chain of several): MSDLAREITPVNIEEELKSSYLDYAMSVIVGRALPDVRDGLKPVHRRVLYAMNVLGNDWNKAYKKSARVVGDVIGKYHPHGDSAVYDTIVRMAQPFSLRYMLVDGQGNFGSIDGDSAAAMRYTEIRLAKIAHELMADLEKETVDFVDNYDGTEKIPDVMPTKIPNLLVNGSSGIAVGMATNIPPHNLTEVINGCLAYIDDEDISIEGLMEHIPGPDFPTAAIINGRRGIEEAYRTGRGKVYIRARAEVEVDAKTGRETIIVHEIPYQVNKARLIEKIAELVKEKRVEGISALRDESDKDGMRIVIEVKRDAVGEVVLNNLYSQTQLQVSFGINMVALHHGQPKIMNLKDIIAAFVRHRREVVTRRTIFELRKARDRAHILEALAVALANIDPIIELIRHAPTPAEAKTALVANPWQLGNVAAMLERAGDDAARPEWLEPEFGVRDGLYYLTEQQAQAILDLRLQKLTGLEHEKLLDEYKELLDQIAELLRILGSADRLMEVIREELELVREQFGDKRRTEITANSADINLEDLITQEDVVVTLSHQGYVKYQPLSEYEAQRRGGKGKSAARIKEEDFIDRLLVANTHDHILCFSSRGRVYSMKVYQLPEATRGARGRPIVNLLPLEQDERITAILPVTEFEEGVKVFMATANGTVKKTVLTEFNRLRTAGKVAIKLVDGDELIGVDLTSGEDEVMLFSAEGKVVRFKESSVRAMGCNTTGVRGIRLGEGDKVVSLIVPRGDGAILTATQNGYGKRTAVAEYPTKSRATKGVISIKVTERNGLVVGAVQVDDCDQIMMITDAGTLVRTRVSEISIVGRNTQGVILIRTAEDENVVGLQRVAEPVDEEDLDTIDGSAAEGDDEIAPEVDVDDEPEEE

E. coli TopoIV = target: T1, E. coli TopoIV (Escherichia coli, UniProt P0AFI2+P20083); assay: TopoIV relaxation assay; type: biochemical; settings: for IC50: relaxation assay, supercoiled pBR322
T1 construct: purchased Inspiralis Ltd
T1 sequence (P0AFI2 whole entry): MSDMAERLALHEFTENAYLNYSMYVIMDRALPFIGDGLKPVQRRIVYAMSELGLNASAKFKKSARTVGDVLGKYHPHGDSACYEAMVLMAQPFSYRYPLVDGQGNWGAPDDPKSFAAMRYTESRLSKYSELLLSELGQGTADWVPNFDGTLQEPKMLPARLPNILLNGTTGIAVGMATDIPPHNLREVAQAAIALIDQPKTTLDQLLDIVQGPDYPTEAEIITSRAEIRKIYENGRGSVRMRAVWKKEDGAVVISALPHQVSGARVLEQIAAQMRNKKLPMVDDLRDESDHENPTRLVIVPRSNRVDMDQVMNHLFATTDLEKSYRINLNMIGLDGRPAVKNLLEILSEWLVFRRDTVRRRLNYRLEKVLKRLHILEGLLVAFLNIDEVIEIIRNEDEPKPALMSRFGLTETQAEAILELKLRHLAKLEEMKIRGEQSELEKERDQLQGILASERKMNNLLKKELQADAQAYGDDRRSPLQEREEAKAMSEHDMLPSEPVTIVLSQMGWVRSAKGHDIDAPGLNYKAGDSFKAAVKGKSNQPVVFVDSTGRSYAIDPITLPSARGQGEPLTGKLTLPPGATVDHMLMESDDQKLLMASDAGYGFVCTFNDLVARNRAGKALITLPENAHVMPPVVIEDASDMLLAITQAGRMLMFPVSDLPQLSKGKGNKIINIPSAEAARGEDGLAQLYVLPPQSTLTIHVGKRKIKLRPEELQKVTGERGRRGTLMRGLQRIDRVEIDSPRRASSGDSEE
T1 sequence (P20083 whole entry): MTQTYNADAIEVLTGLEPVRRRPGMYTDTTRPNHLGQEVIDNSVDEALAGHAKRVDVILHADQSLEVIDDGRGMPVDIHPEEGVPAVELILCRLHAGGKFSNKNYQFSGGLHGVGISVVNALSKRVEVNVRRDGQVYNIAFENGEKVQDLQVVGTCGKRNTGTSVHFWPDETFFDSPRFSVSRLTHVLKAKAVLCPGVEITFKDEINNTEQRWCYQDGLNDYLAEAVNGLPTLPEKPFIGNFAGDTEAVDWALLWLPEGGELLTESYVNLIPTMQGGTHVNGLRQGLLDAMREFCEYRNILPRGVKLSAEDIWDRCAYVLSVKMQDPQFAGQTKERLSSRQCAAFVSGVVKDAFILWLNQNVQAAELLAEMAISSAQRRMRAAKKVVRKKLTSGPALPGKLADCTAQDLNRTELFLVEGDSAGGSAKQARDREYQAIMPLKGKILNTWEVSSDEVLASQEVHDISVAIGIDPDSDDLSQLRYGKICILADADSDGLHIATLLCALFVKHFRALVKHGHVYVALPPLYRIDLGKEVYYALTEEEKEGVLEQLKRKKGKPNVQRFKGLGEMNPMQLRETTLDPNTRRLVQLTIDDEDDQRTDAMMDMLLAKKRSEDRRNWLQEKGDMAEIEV
Protocol: DNA relaxation activity was assayed with supercoiled pBR322 DNA as a substrate (Inspiralis Ltd) according to the manufacturer's protocol. The standard reaction mixture (20 μl) contained 40 mM HEPES-KOH pH 7.6, 100 mM potassium glutamate, 10 mM Mg(OAc)2, 10 mM dithiothreitol, 1 mM ATP, 50 μg/ml albumin, 5 ng/μl […] pBR322, and TopoIV protein. The reaction mixture was incubated at 37° C. for 30 minutes, and then was terminated by addition of 2 μl 0.5 M EDTA, 3.5 μl loading dye and 20 μl chloroform/isoamyl alcohol (24:1) mixture. […] One unit of relaxation activity was defined as the amount of TopoIV required to relax 0.1 μg of plasmid in 30 minutes.
as §4

APH(3′)-IIIa enzyme = target: T2, APH(3′)-IIIa enzyme (Enterococcus faecalis, UniProt P0A3Y5); type: biochemical
T2 construct: made in house; host or cells: E. coli BL21 carrying pETSACG1 (inferred)
T2 sequence (P0A3Y5 whole entry): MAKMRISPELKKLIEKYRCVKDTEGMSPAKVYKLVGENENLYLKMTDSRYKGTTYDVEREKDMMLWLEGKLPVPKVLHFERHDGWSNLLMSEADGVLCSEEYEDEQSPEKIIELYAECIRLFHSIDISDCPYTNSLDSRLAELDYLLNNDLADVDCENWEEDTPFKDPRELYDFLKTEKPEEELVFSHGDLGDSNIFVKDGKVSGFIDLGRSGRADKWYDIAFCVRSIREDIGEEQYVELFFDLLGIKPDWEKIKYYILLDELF

[4] = compound as substrate of APH(3′)-IIIa

SMILES | MIC E. coli AG100A (E. coli AG100A) | MIC E. coli AG100B (E. coli AG100B; kanamycin resistant, APH(3′)-I) | MIC MRSA ATCC 43300 (MRSA ATCC 43300) | MIC E. coli ATCC 25922 (E. coli ATCC 25922; Table 4) | MIC B. subtilis ATCC 6633 (B. subtilis ATCC 6633 [1]; Table 4) | MIC ratio BL21/pETSACG1 to BL21 (E. coli BL21/pETSACG1) | MIC BL21/pETSACG1 (E. coli BL21/pETSACG1) | MIC BL21 (E. coli BL21) | MIC ratio XL1 blue/pET9d to XL1 blue (E. coli XL1 blue/pET9d) | MIC XL1 blue/pET9d (E. coli XL1 blue/pET9d) | MIC XL1 blue (E. coli XL1 blue) | MIC ratio XL1 blue/pSF815 to XL1 blue (E. coli XL1 blue/pSF815) | MIC XL1 blue/pSF815 (E. coli XL1 blue/pSF815) | MIC E. coli R477-100 (E. coli R477-100) | IC50 fold superior than that of Cipro in DNA gyrase assay (E. coli DNA gyrase) | IC50 (E. coli DNA gyrase) | IC50 [3] | IC50 fold superior than Cipro in TopoIV assay (E. coli TopoIV) | IC50 (E. coli TopoIV) | also measured
NCC1OC(OC2C(C(=O)NCc3cn(Cc4ccc(CN5CCN(c6cc7c(cc6F)c(=O)c(C(=O)O)cn7C6CC6)CC5)cc4)nn3)OC(OC3C(O)C(N)CC(N)C3OC3OC(CN)C(O)C(O)C3N)C2O)C(N)C(O)C1O (centres unmarked) [Compound 1p, N-((1-(4-((ciprofloxacin)methyl)benzyl)-1H-1,2,3-triazol-4-yl)-5″-methyl)neomycin carboxamide] | 1.5 µg/mL (≈ 1.31 µM) | 12 µg/mL (≈ 10.5 µM) | 3 µg/mL (≈ 2.63 µM) | 6 µg/mL (≈ 5.25 µM) | 3 µg/mL (≈ 2.63 µM) | 1 | 0.4 μg/ml | 0.4 µg/mL (≈ 0.35 µM) | 1 | 6 μg/ml | 6 µg/mL (≈ 5.25 µM) | 1 | 6 μg/ml | 6 µg/mL (≈ 5.25 µM) |  |  |  |  |  | 
O=C(O)c1cn(C2CC2)c2cc(N3CCNCC3)c(F)cc2c1=O [Cipro, ciprofloxacin, reference compound] |  |  | 0.20 µg/mL (≈ 0.604 µM) |  |  |  |  |  |  |  |  |  |  |  |  |  |  |  |  | MIC (E. coli AG100A; Escherichia coli, AG100A, read-out: MIC E. coli AG100A, Table 6): < 3 ng/mL; MIC (B. subtilis ATCC 6633 [2]): 0.75 µg/mL (≈ 2.26 µM); MIC (E. coli ATCC 35218): 0.75 µg/mL (≈ 2.26 µM); MIC (E. coli AG100B; read-out: MIC E. coli AG100B, Table 4, kanamycin resistant, APH(3′)-I): 0.05 µg/mL (≈ 0.151 µM); MIC (E. coli AG100B; read-out: MIC E. coli AG100B, Table 6): 0.06 µg/mL (≈ 0.181 µM); MIC (MRSA ATCC 43300; Staphylococcus aureus, read-out: MIC MRSA ATCC 43300): 0.2 µg/mL (≈ 0.604 µM); Protein synthesis IC50 [3]: inactive; MIC (E. coli ATCC 25922; Table 4, read-out: MIC E. coli ATCC 25922): 0.02 µg/mL (≈ 0.0604 µM); MIC (E. coli ATCC 25922; Table 6, read-out: MIC E. coli 25922): 0.023 µg/mL (≈ 0.0694 µM); MIC (B. subtilis ATCC 6633 [1]; Table 4, read-out: MIC B. subtilis ATCC 6633): 0.02 µg/mL (≈ 0.0604 µM); MIC (B. subtilis ATCC 6633 [1]; Table 6, read-out: MIC Bacillus subtilis): 0.023 µg/mL (≈ 0.0694 µM); MIC (E. coli R477-100; R477100, read-out: MIC E. Coli R477-100): 0.023 µg/mL (≈ 0.0694 µM); MIC (E. coli R477-100; R477100, read-out: MIC E. coli R477-100): 0.02 µg/mL (≈ 0.0604 µM)
NCC1OC(OC2C(C(=O)Nc3ccc(-c4cn(CC(O)CN5CCN(c6cc7c(cc6F)c(=O)c(C(=O)O)cn7C6CC6)CC5)nn4)cc3)OC(OC3C(O)C(N)CC(N)C3OC3OC(CN)C(O)C(O)C3N)C2O)C(N)C(O)C1O (centres unmarked) [Compound 1f, N-(4-(1-(2-hydroxy-3-(ciprofloxacin)propyl)-1H-1,2,3-triazol-4-yl)-5″-phenyl)neomycin carboxamide] | 0.75 µg/mL (≈ 0.648 µM) | 6 µg/mL (≈ 5.18 µM) | 24 µg/mL (≈ 20.7 µM) | 3 µg/mL (≈ 2.59 µM) | 6 µg/mL (≈ 5.18 µM) |  |  |  |  |  |  |  |  | 6 µg/mL (≈ 5.18 µM) | 18 fold | 73 ± 5 nM | 2.2 ± 0.6 µM | 19 fold | 0.58 ± 0.04 µM | 
NCC1OC(OC2C(C(=O)NCc3cn(Cc4cccc(CN5CCN(c6cc7c(cc6F)c(=O)c(C(=O)O)cn7C6CC6)CC5)c4)nn3)OC(OC3C(O)C(N)CC(N)C3OC3OC(CN)C(O)C(O)C3N)C2O)C(N)C(O)C1O (centres unmarked) [Compound 1o, N-((1-(3-((ciprofloxacin)methyl)benzyl)-1H-1,2,3-triazol-4-yl)-5″-methyl)neomycin carboxamide] | 0.75 µg/mL (≈ 0.657 µM) | 12 µg/mL (≈ 10.5 µM) | 6 µg/mL (≈ 5.25 µM) | 6 µg/mL (≈ 5.25 µM) | 3 µg/mL (≈ 2.63 µM) | 1 | 0.4 μg/ml | 0.4 µg/mL (≈ 0.35 µM) | 1 | 6 μg/ml | 6 µg/mL (≈ 5.25 µM) | 4 | 24 μg/ml | 6 µg/mL (≈ 5.25 µM) |  |  |  |  |  | 
NCC1OC(OC2C(COCc3cn(CCN4CCN(c5cc6c(cc5F)c(=O)c(C(=O)O)cn6C5CC5)CC4)nn3)OC(OC3C(O)C(N)CC(N)C3OC3OC(CN)C(O)C(O)C3N)C2O)C(N)C(O)C1O (centres unmarked) [Compound 1q, 4-((5″-neomycinmethoxy)methyl)-1-(2-(ciprofloxacin)ethyl)-1H-1,2,3-triazole] | 0.38 µg/mL (≈ 0.361 µM) | 12 µg/mL (≈ 11.4 µM) | 6 µg/mL (≈ 5.7 µM) | 3 µg/mL (≈ 2.85 µM) | 0.75 µg/mL (≈ 0.712 µM) | 1 | 0.2 μg/ml | 0.2 µg/mL (≈ 0.19 µM) | 4 | 12 μg/ml | 3 µg/mL (≈ 2.85 µM) | 4 | 12 μg/ml | 3 µg/mL (≈ 2.85 µM) | 32 fold | 41 ± 9 nM | 18.1 ± 4.9 µM | 1.4 fold | 7.9 ± 0.25 µM | fold more potent than NeoB against E. coli AG100A (E. coli AG100A; from MIC): 253 fold; fold more potent than NeoB against E. coli AG100B (E. coli AG100B; from MIC): 32 fold
NCC1OC(OC2C(C(=O)NCc3cn(CC(O)CN4CCN(c5cc6c(cc5F)c(=O)c(C(=O)O)cn6C5CC5)CC4)nn3)OC(OC3C(O)C(N)CC(N)C3OC3OC(CN)C(O)C(O)C3N)C2O)C(N)C(O)C1O (centres unmarked) [Compound 1m, N-((1-(2-hydroxy-3-(ciprofloxacin)propyl)-1H-1,2,3-triazol-4-yl)-5″-methyl)neomycin carboxamide] | 0.75 µg/mL (≈ 0.684 µM) | 12 µg/mL (≈ 10.9 µM) | 12 µg/mL (≈ 10.9 µM) | 3 µg/mL (≈ 2.74 µM) | 3 µg/mL (≈ 2.74 µM) | 1 | 0.2 μg/ml | 0.2 µg/mL (≈ 0.182 µM) | 2 | 12 μg/ml | 6 µg/mL (≈ 5.47 µM) | 8 | 48 μg/ml | 6 µg/mL (≈ 5.47 µM) |  |  |  |  |  | Km (APH(3′)-IIIa enzyme): 87 µM; Km (APH(3′)-IIIa enzyme; [4]): 86.8 ± 8.9 µM; kcat (APH(3′)-IIIa enzyme; [4]): 2.5 ± 0.1 s⁻¹; MIC against E. coli (pETSACG1) (E. coli BL21/pETSACG1; molar expression of 0.2 μg/ml): 5.5 μM
